# Data as given in PMC6271716, “Design, Synthesis and SAR Studies of NAD Analogues as Potent Inhibitors towards CD38 NADase” (Molecules, 2014).
# Target: T1, CD38 NADase (Homo sapiens, UniProt P28907, N100D/N164D/N209D/N219D)
# T1 construct: pPICZαA carrying the C-terminus of CD38 (AA46-300, with the four glycosylation sites mutated); made in house; host or cells: Pichia pastoris X33 (pPICZαA vector)
# T1 sequence (P28907 46-300 N100D/N164D/N209D/N219D): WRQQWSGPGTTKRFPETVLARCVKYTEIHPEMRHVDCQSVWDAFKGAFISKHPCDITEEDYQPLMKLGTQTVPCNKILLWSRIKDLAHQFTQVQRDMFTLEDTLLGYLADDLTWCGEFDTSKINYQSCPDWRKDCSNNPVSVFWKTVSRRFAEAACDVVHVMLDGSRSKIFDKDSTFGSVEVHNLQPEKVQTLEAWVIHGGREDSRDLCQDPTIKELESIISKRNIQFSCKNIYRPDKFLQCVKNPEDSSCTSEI
# Assay: Enzyme activity assay: inhibition of the NAD-glycohydrolase (NADase) activity of recombinant CD38 (NAD cycling assay)
# Assay type: biochemical
# Conditions: recombinant CD38 0.3 ng, 2 h preincubation at room temperature, NAD 2.5 µM
# Experimental: Enzyme inhibition assays. The inhibitory activities to CD38 NADase of NAD analogues were evaluated by the method reported before. In this method, the inhibitions of NADase activities were calculated from the decrease of the NAD content.
# Recombinant CD38, produced with a yeast expression system (Invitrogen, Carlsbad, CA, USA) was used to prepare the recombinant CD38 as reported previously. Briefly, pPICZαA carrying the C-terminus of CD38 (AA46-300, with the four glycosylation sites mutated, N100D, N164D, N209D and N219D) was transformed Pichia pastoris yeast, X33. The recombinant CD38 was induced by methanol and purified by phenylsepharose chromatography and cation exchange chromatography (SP column, GE Healthcare, Little Chalfont, UK). All the chemicals used in the enzymatic assays were purchased from Sigma (Santa Clara, CA, USA).
# To study the inhibition of the NAD-glycohydrolase (NADase) activity of CD38 by the compounds, an enzymatic assay was performed. Briefly, different concentrations of the compound were mixed with recombinant CD38 (0.3 ng) and bovine serum albumin (1 µg) in a 16 µL-reaction mixture, then incubated in the dark for 2 hours at room temperature. NAD was added to the mixture to a final concentration of 2.5 µM to start the reaction. Aliquots (4 µL) of the reaction mixtures were withdrawn at 0, 4, 8 and 12 min, and the reaction was stopped by adding 4 µL of 0.6 M HCl, followed by neutralization with 8 µL of 0.5 M phosphate buffer, pH 8. The subsequent cycling reaction was conducted in 96-well plate with 16 µL of the sample mixed with 100 µL of the reagent containing 2% ethanol, 100 µg/mL alcohol dehydrogenase, 20 µM resazurin, 11 µg/mL diaphorase, 10 µM flavin mononucleotide and 100 mM sodium phosphate, pH 7. The cycling reaction was allowed to proceed for 10 min and the rate of fluorescence increase of resorufin (with excitation at 544 nm and emission at 590 nm) was measured using the Infinite M200 fluorescence plate reader (TECAN, Grödig, Austria). The relative NAD content was measured from the slope of fluorescence increase and the NAD-glycohydrolase activity was calculated from the decrease of NAD content at 0, 4, 8 and 12 min after the reaction started. As a control, each compound was directly added to the cycling reaction system with corresponding concentration to evaluate the potential interference to the cycling assay itself. IC50 values of inhibitors were calculated by the GraphPad Prism 5 software (GraphPad Software, Inc., La Jolla, CA, USA).
row,SMILES,"IC50, inhibitory activities of CD38 NADase"
1,"C[C@@]1(F)[C@H](O)[C@@H](COP(=O)(O)CP(=O)(O)OC[C@H]2O[C@@H]([n+]3cccc(C(N)=O)c3)[C@](C)(F)[C@@H]2O)O[C@H]1[n+]1cccc(C(N)=O)c1 [Compound 22, Bis(2′-deoxy-2′-fluoro-2′-methyl-β-nicotinamide)-methylenediphosphonate]",n.s.

# Same assay, conditions: recombinant CD38 0.3 ng, 2 h preincubation at room temperature, NAD 2.5 µM; read-out: IC50, inhibitory activities of CD38 NADase
row,SMILES,IC50 [µM]
1,"CC1(F)C(O)C(COP(=O)([O-])OP(=O)(O)OCC2OC(n3cnc4c(N)ncnc43)C(O)C2O)OC1[n+]1cccc(C(N)=O)c1 (stereo not drawn) [Compound 7, 2′-Deoxy-2′-fluoro-2′-methyl-β-nicotinamide adenine dinucleotide]",1810
2,"NC(=O)c1ccc[n+]([C@@H]2O[C@H](COP(=O)(O)O)[C@@H](O)[C@@H]2F)c1 [Compound 8, 2′-deoxy-2′-fluoroarabinosyl-β-nicotinamide mononucleotide, reference compound]",0.297
3,"NC(=O)c1ccc[n+](C2OC(CSP(=O)(O)OP(=O)([O-])OCC3OC(n4cnc5c(N)ncnc54)C(O)C3O)C(O)C2F)c1 (stereo not drawn) [Compound 10, 2′-Deoxy-2′-fluoro-5′-thio-phosphate-arabinofuranoside-β-nicotinamide adenine dinucleotide]",0.341
4,"NC(=O)c1ccc[n+](C2OC(COP(=O)([O-])OP(=O)(O)OP(=O)(O)OCC3OC(n4cnc5c(N)ncnc54)C(O)C3O)C(O)C2F)c1 (stereo not drawn) [Compound 11, P^1-(Adenosine)-P^3-(2′-deoxy-2′-fluoro-β-nicotinamide arabinofuranoside) triphosphate]",1.15
5,"NC(=O)c1ccc[n+](C2OC(COP(=O)([O-])OP(=O)(O)OCC3OC(n4cnc5c(=O)[nH]cnc54)C(O)C3O)C(O)C2F)c1 (stereo not drawn) [Compound 12, 2′-Deoxy-2′-fluoro-arabinosyl-β-nicotinamide hypoxanthine dinucleotide]",0.109
6,"NC(=O)c1ccc[n+](C2OC(COP(=O)([O-])OP(=O)(O)OCC3OC(n4cnc5c(=O)[nH]c(N)nc54)C(O)C3O)C(O)C2F)c1 (stereo not drawn) [Compound 13, 2′-Deoxy-2′-fluoro-arabinosyl-β-nicotinamide guanine dinucleotide]",0.0893
7,"COc1ncnc2c1ncn2C1OC(COP(=O)(O)OP(=O)([O-])OCC2OC([n+]3cccc(C(N)=O)c3)C(F)C2O)C(O)C1O (stereo not drawn) [Compound 19, 2′-Deoxy-2′-fluoro-arabinosyl-β-nicotinamide 6-O-methyl-hypoxanthine dinucleotide]",0.133
8,"NC(=O)c1ccc[n+]([C@@H]2O[C@H](COP(=O)(O)OP(=O)(O)OC[C@H]3O[C@@H]([n+]4cccc(C(N)=O)c4)[C@@H](F)[C@@H]3O)[C@@H](O)[C@@H]2F)c1 [Compound 20, Bis(2′-deoxy-2′-fluoro-β-nicotinamide-arabinosyl) pyrophophate]",0.575
9,"NC(=O)c1ccc[n+]([C@@H]2O[C@H](COP(=O)(O)CP(=O)(O)OC[C@H]3O[C@@H]([n+]4cccc(C(N)=O)c4)[C@@H](F)[C@@H]3O)[C@@H](O)[C@@H]2F)c1 [Compound 21, Bis(2′-deoxy-2′-fluoro-β-nicotinamide-arabinosyl)-methylenediphosphonate]",7.98
10,"NC(=O)c1ccc[n+]([C@@H]2O[C@H](COP(=O)([O-])OP(=O)(O)OC[C@H]3O[C@@H](n4cnc5c(N)ncnc54)[C@H](O)[C@@H]3O)[C@@H](O)[C@@H]2F)c1 [Compound 23, 2′-deoxy-2′-fluoroarabinosyl-β-nicotinamide adenine dinucleotide, reference compound]",0.0611

# Same assay, conditions: recombinant CD38, NAD 2.5 µM
row,SMILES,"inhibition of CD38 NADase, in words"
1,"CC1(F)C(O)C(COP(=O)([O-])OP(=O)(O)OCC2OC(n3cnc4c(N)ncnc43)C(O)C2O)OC1[n+]1cccc(C(N)=O)c1 (stereo not drawn) [Compound 7, 2′-Deoxy-2′-fluoro-2′-methyl-β-nicotinamide adenine dinucleotide]",weak inhibition
